According to PubChem BioAssay (NCI):
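A five-concentration, 48-hour dose response in 96-well plates underlies each endpoint, interpolated linearly between surrounding concentrations. The concentration for 50% growth inhibition is given as GI50. TGI: total growth inhibition.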

Columns and labels:
Assay in all cases: NCI tumour cell line growth inhibition, 48 h
[1] = system: DMS 273 small cell lung
[2] = system: RXF-631 renal
[3] = system: XF 498 CNS
[4] = system: DMS 114 small cell lung
[5] = system: M19-MEL melanoma
[6] = system: HOP-18 NSCLC
[7] = system: SNB-78 CNS
[8] = system: P388/ADR leukemia
[9] = system: P388 leukemia
[10] = system: SN12K1 renal

Row | Structure (SMILES) | TGI [1] [µM] | TGI [2] [µM] | TGI [3] [µM] | TGI [4] [µM] | TGI [5] [µM] | TGI [6] [µM] | TGI [7] [µM] | TGI [8] [µM] | TGI [9] [µM] | GI50 [6] [pM] | TGI [10] [µM]
1 | COc1ccc(N=NC(C(=O)c2ccccc2)C(=O)c2ccccc2)cc1 | 56.7 | > 100 | 71.9 | 54.6 |  |  |  |  |  |  | 
2 | CN(C(=O)C12C3C4C5C3C1(C(=O)C13C6C7C8C6C1C8C73)C5C42)C(C)(C)C (stereo not drawn) | > 30 |  | > 50 | > 37.6 | > 50 | > 50 | > 50 |  |  |  | 
3 | C/C=C(/I)CBr |  | 36.2 | 27 | 28.4 | 28.6 |  | 93.9 |  |  |  | 
4 | N#CN/C(N)=N/C/N=C(\N)NC#N | > 100 | > 100 |  | > 100 | > 100 | > 100 | > 100 |  |  |  | 
5 | O=C(c1nc2ccc([N+](=O)[O-])cc2[nH]c1=O)C(O)c1ccc2c(c1)OCO2 (stereo not drawn) | > 100 |  |  | > 100 | > 100 | > 100 |  |  |  |  | 
6 | CCN(CC)CCCNc1ccc2nc(C)n3c4ccc(O)cc4c(=O)c1c23 | 13.4 | 17.4 | 23.3 | 21.5 | 23.8 | 25.7 | 19.6 |  |  |  | 
7 | CCC1(N=[N+]=[N-])C(=O)c2ccccc2N(C)C1=O (stereo not drawn) | > 100 |  |  | > 100 | > 100 | > 100 | > 100 |  |  |  | 
8 | O=c1cc(CO)oc2c3c(cc(O)c12)OCC(COC1OC(CO)C(O)C(O)C1O)=CC3 (stereo not drawn) | > 100 |  |  | > 100 | > 100 | > 100 | > 100 |  |  |  | 
9 | CN(Cc1cnc2nc(N)nc(N)c2n1)c1ccc(C(=O)N[C@@H](CCC(=O)O)C(=O)O)cc1 | 210 |  | 184 | 191 | > 250 |  | 213 | 29.4 | 13.8 | 0.714 | 191
10 | Cc1c2ccncc2cc2c1[nH]c1ccccc12 | 4.96 |  | 1.89 | 16.9 | 10.9 | 7.35 | 93.3 | 7.46 | 5.52 |  | 9.44
11 | COc1ccc(C(c2c(O)c3ccccc3n(-c3ccccc3)c2=O)c2c(O)c3ccccc3n(-c3ccccc3)c2=O)cc1 | > 100 |  | > 100 | > 100 | > 100 | > 100 | > 100 |  |  |  | 
12 | NC1=C(NC(=O)Cc2ccccc2F)C(=O)c2ccccc2C1=O | > 100 |  |  | > 100 | 24.5 | > 100 |  |  |  |  | 
13 | CCOc1ccc2[nH]c3c(C)c4ccncc4c(C)c3c2c1 | 1.64 | 2.61 | 2.16 | 3.01 | 3.1 |  | 3.12 |  |  |  | 
14 | CC(=O)OCC1OC(n2cc(F)c(=O)[nH]c2=O)C(NC(=O)OCc2ccccc2)C(OC(C)=O)C1OC(C)=O (stereo not drawn) | > 100 |  | > 100 | > 100 | > 100 | > 100 | > 100 | > 100 | > 100 |  | > 100
15 | Brc1ccc(C[P+]2(c3ccccc3)CCCCC2)cc1 | > 100 |  |  | > 100 | 76.4 | > 100 | 84.2 |  |  |  | 
16 | COC(=O)/C=C(C)/C=C/C1OC(C)OCC1O (stereo not drawn) | > 100 |  |  | > 100 | > 100 |  | > 100 |  |  |  | 
17 | NC(=S)/N=C(/c1nc2ccc(Cl)cc2[nH]c1=O)C(O)c1ccccc1Cl (stereo not drawn) | > 100 |  | > 100 | > 100 |  | > 100 |  |  |  |  | 
